Series [1] in a line: in vitro. To be noted: human, liver microsomes.
Description: Half life in human liver microsomes
The nature of series [2]: in vitro. The settings on record: rat, liver microsomes.
Description: Half life in rat liver microsomes

Structures are written as SMILES.

With `NC(=O)C1CCN(CCOc2ccc(C#Cc3ccc(-c4ccc(Cl)cc4)cn3)cc2)CC1`, the half-life – broadly, the time needed for the level to fall by half in the phase considered – in the series “in vitro [1]” is more than 90 min; in the series “in vitro [2]”, 21 min.

These data come from ChEMBL document CHEMBL3600293, “Design, synthesis and evaluation of MCH receptor 1 antagonists--Part I: Optimization of HTS hits towards an in vivo efficacious tool compound BI 414” (Bioorg Med Chem Lett, 2015).
